Entries after “also recorded” stand apart in the source; their conditions may differ.
Key:
[1] = test system: autophagy (LC3) in pancreas; assay: Cerulein induced pancreatitis model in rats; type: in vivo; settings: 40 mg/kg intraperitoneally hourly for 4 times with cerulein
Procedure: FIG. 13 depicts results showing the effect of MBCQ and derivatives in vivo. (A) Mice were injected with rapamycin (10 mg/kg) alone as a positive control, or with C43 or MBCQ (40 mg/kg) intraperitoneally every hour for 4 h and then sacrificed at 5 th h. The autophagy levels in liver were analyzed by western blotting using anti-LC3 antibody. (B) C43 reduces the levels of autophagy induced by cerulein. Rats were injected intraperitoneally with cerulein (50 μg/kg) alone or with C43 (40 mg/kg) hourly for 4 times. The rats were sacrificed at one h after the last injection and the pancreas were isolated for western blotting analysis using anti-LC3 and anti-tubulin (as a control).
Since autophagy has been proposed to contribute to the tissue damage in pancreatitis, MBCQ derivatives were tested to see if they could reduce tissue damage induced by cerulein injection, a well-established animal model of pancreatitis (Hashimoto, D., Ohmuraya, M., Hirota, M., Yamamoto, A., Suyama, K., Ida, S., Okumura, Y., Takahashi, E., Kido, H., Araki, K., et al. (2008). Involvement of autophagy in trypsinogen activation within the pancreatic acinar cells. J Cell Biol 181, 1065-1072; and Ohmuraya, M., and Yamamura, K. (2008). Autophagy and acute pancreatitis: a novel autophagy theory for trypsinogen activation. Autophagy 4, 1060-1062). […]

Beclin1 = assay: Ubiquitination of Beclin1 in 293T cells; type: cell-based
Procedure: FIG. 16 depicts results of experiments showing that spautin promotes the degradation of Beclin1 through proteasomal pathway. […] DMSO (1‰), MBCQ (10 μM), spautin (10 μM), NH4Cl (10 mM), MG132 (5 μM). […] B, 293T cells were transfected with GFP-Beclin1 and HA-Ub expression vectors.
Ubiquitination represents an essential key step in mediating proteasomal degradation. Experiments were therefore run to determine if ubiquitination of Beclin1 is increased in cells treated with C43.

bax/bak DKO MEF cells = assay: Etoposide induced cell death of bax/bak DKO cells; type: cell-based, mouse; settings: MBCQ 10 μM; for cell death induced by etoposide: etoposide 8 μM, spautin 10 μM, 3-MA 10 mM, 8 h
Procedure: C, cells were collected for western blotting using anti-LC3 antibody. α-tubulin was used as a control. D-F, Bax/bak DKO cells were treated with spautin (10 μM) or indicated concentration, in the presence of or absent etoposide (8 μM) for 8 h or indicated time. […] F, Cells were collected for western blotting using anti-LC3 antibody. α-tubulin was used as a control.
Autophagy has been proposed to contribute to cell death in a number of apoptotic deficient cell types. For example, bax/bak double deficient mouse embryonic fibroblast cells (DKO mefs) are highly resistant to apoptosis (Wei, M. C., Zong, W. X., Cheng, E. H., Lindsten, T., Panoutsakopoulou, V., Ross, A. J., Roth, K. A., MacGregor, G. R., Thompson, C. B., and Korsmeyer, S. J. (2001). Proapoptotic BAX and BAK: a requisite gateway to mitochondrial dysfunction and death. Science 292, 727-730).

PDE5 = PDE5 (Homo sapiens, UniProt O76074); assay: Determination of % inhibition of PDE5 activity; type: biochemical
Hs578Bst cells = assay: Hs578Bst cells; type: cell-based
Procedure: A-B, MDCK cells were treated with DMSO (1‰) and spautin at indicated concentration in DMEM with or without glucose for 24 h. […] C-D, Hs578Bst cells were treated with DMSO (1‰) and C43 as indicated concentration in DMEM with or without glucose for 24 h.
(§1) Hs578Bst cells, established from normal tissue peripheral to the tumor and is myoepithelial in origin, also were not sensitive to spautin (FIGS. 12C and 12D).

MDCK cells = MDCK cells under glucose-free condition; type: cell-based, canine
Source text: as §1

PtdIns3P = assay: Lipid dot blot assay for cellular PtdIns3P; type: cell-based, mouse; settings: 10 μM, 3 h; basal and rapamycin treated cells
Procedure: FIG. 9 depicts results showing that MBCQ and C43 (spautin) selectively reduce the cellular levels of PtdIns3P. MEF cells were treated with DMSO (0.1%), RAPA (0.2 μM) alone, A, MBCQ (10 μM) or B, C43 (spautin) (10 μM) with or without RAPA (0.2 μM) for 3 h. The cellular PtdIns species were extracted and applied onto polyvinylidene fluoride membrane. The levels of PtdIns3P were detected using GST-PX domain protein and anti-GST antibody.
To further determine the effect of MBCQ on the cellular levels of PtdIns3P, a lipid dot blot assay was used. The cellular PtdIns species were extracted and applied onto polyvinylidene fluoride membrane. The levels of PtdIns3P was detected using GST-PX domain protein and anti-GST antibody. […] Taken together, it was concluded that MBCQ reduces the levels of PtdIns3P.

LC3II = assay: Endogenous LC3II western blot in H4-LC3, 293T and MEF cells; type: cell-based; settings: MBCQ and rapamycin co-treated versus rapamycin alone
Procedure: To confirm the inhibition of autophagy by MBCQ, H4-LC3 cells, 293T cells and mouse embryonic fibroblast cells were treated with MBCQ and the levels of endogenous LC3II were measured by western blot.

Vps34 complex = molecular target: T1, Vps34 complex (Homo sapiens, UniProt Q8NEB9); assay: Vps34 complex kinase assay (PtdIns phosphorylation, TLC); type: biochemical; settings: immunoprecipitated HA-Vps34 complex from 293T; wortmannin 10 uM
T1 construct: expressed in transfected cells; host or cells: 293T

[2] = test system: ubiquitin-proteasomal degradation pathway; assay: Proteasomal degradation pathway (pEGFP-CL1, polyubiquitination); type: cell-based
Procedure: In addition, the effect of MBCQ on proteasomal degradation pathway using pEGFP-CL1, a GFP fusion with a short-lived peptide was determined (Bence, N. F., Sampat, R. M., and Kopito, R. R. (2001). Impairment of the ubiquitin-proteasome system by protein aggregation. Science 292, 1552-1555).

[3] = test system: LC3-GFP (H4-LC3-GFP cells); assay: Starvation induced autophagy in H4-LC3-GFP cells; type: cell-based; settings: Hanks buffer 1 h; MBCQ 5 μM, 3-MA 10 mM, wortmannin 0.1 μM
Source text: FIG. 2 depicts results relating to MBCQ inhibition of autophagy induced by starvation. Quantitative measurement of LC3-GFP spot number per cell (a), spot size per cell (b) and spot intensity per cell (c) using HCS and expressed as % of control.

T1 sequence (Q8NEB9 whole entry): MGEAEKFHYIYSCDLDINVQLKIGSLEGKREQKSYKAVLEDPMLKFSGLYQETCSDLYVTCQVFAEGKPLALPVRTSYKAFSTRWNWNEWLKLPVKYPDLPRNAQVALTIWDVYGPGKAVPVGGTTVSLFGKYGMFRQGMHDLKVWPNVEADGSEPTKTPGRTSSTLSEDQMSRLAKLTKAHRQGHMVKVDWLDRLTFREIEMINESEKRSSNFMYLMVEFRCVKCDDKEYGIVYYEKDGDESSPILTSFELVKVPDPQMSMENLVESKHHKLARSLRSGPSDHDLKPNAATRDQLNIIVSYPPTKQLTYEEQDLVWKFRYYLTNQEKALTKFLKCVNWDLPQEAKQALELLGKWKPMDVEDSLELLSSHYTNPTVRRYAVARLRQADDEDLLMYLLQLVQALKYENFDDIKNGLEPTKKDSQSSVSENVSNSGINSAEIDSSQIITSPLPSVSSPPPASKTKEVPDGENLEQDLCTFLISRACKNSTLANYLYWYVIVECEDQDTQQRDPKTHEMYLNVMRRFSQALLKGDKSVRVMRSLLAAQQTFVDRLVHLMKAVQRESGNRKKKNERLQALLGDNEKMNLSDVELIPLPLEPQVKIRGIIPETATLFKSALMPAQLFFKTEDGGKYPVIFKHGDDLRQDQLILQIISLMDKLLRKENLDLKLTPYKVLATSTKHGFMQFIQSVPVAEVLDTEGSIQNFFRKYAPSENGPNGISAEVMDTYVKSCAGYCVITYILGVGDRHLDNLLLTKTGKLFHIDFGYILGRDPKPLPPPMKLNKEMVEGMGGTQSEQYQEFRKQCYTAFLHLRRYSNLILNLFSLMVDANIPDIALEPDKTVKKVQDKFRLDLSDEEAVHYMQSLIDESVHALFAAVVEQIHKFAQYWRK
T1 sequence (Q14457 whole entry partner): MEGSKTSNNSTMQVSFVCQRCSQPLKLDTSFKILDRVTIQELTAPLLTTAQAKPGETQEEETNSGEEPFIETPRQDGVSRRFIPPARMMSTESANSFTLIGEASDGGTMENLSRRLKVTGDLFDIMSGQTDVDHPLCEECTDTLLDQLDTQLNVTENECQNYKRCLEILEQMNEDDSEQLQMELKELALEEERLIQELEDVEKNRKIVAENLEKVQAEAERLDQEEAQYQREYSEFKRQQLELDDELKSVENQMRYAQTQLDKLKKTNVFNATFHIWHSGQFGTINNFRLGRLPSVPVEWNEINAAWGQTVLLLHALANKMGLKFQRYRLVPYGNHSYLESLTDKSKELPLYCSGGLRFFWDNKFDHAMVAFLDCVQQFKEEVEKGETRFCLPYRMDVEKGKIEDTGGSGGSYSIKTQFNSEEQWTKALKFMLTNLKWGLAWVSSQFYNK

In the case of Fc1ccc(CNc2ncnc3ccc(F)cc23)cc1 [C43, 6-fluoro-N-(4-fluorobenzyl)quinazolin-4-amine], the “levels of autophagy induced by cerulein injection (pancreas)” value [1] is reported as “significantly reduced the levels of autophagy”, the “ubiquitination of Beclin1” value (Beclin1) is reported as “promoted the ubiquitination of Beclin1” and the “cell death induced by etoposide” value (bax/bak DKO MEF cells) is reported as “inhibits etoposide induced death”. The “inhibiting activity towards PDE5 and other PDEs” value (PDE5; compared with MBCQ) was “much reduced inhibiting activity”, the “sensitivity of cells to compound” value (Hs578Bst cells) was “not sensitive” and the apoptosis (MDCK cells) was “did not induce apoptosis”. The growth suppression (MDCK cells; 10 μM of spautin for 48 hrs) was ~25% and the “cellular levels of PtdIns3P” value (PtdIns3P) was “selectively reduced the cellular levels of PtdIns3P”.

For Clc1ccc2ncnc(NCc3ccc4c(c3)OCO4)c2c1 [MBCQ], the “levels of LC3II in etoposide treated cells” value (bax/bak DKO MEF cells) was “reduced in the presence of MBCQ”, the “cell death induced by etoposide” value (bax/bak DKO MEF cells) was “significantly reduced cell death; also recorded: inhibits etoposide induced death” and the “% Inhibition of PDE5 activity, Average” value (PDE5; Concentration = 0.2 μM) was 54.4%. For the same compound, the “% Inhibition of PDE5 activity, Average” value (PDE5; Concentration = 2 μM) was 91.0%, the “% Inhibition of PDE5 activity, Average” value (PDE5; Concentration = 20 μM) was 98.8% and the “levels of LC3II” value (LC3II) was “consistently reduced”. The “phosphorylation of PtdIns by Vps34 complex” value (Vps34 complex) was “not a direct inhibitor of Vps34 enzymatic activity”, the “general levels of polyubiquitination” value [2] was “no effect on the general levels of polyubiquitination” and the “levels of pEGFP-CL1” value [2] was “does not affect the levels of pEGFP-CL1”. The “starvation induced autophagy (LC3-GFP spot number, size, intensity)” value [3] was “significantly reduced” and the “cellular levels of PtdIns3P” value (PtdIns3P) was “selectively reduced the cellular levels of PtdIns3P”.
